{"source": "patent US20080064760A1", "about": "“Spontaneously Dispersible Pharmaceutical Composition” (priority 2004, published 2008)", "key": {"[1]": {"test": "Solubility of Compound I", "assay_type": "physicochemical", "protocol": "(§1) The melting range of Compound I is from 120.5-151° C. In both Samples 4A and 4B, the drug loading is 4% or 20 mg/capsule."}, "[2]": {"test": "Log P in octanol", "assay_type": "physicochemical", "protocol": "as §1"}}, "data": [{"smiles": "COC(=O)N[C@]1(C)Cc2ccc(NC(=O)c3cccc(C)c3-c3ccc(C(F)(F)F)cc3)cc2C1", "note": "[Compound I]", "values": [{"measurement": "solubility", "setting": "[1]", "value": 0.17, "unit": "µg/mL"}, {"measurement": "Log P in octanol", "setting": "[2]", "value": 4.66}]}]}
